In ChEMBL document CHEMBL4673247, “Mycophenolic anilides as broad specificity inosine-5'-monophosphate dehydrogenase (IMPDH) inhibitors” (Bioorg Med Chem Lett, 2020):

How the values were obtained:
[1] = target: T1, Inosine-5'-monophosphate dehydrogenase (Cryptosporidium parvum, UniProt Q8T6T2); assay: Inhibition of Cryptosporidium parvum IMPDH expressed in Escherichia coli assessed as apparent inhibition constant using NAD as substrate by fluorescence assay; conditions: read-out: Ki(app)
T1 sequence (Q8T6T2 whole entry): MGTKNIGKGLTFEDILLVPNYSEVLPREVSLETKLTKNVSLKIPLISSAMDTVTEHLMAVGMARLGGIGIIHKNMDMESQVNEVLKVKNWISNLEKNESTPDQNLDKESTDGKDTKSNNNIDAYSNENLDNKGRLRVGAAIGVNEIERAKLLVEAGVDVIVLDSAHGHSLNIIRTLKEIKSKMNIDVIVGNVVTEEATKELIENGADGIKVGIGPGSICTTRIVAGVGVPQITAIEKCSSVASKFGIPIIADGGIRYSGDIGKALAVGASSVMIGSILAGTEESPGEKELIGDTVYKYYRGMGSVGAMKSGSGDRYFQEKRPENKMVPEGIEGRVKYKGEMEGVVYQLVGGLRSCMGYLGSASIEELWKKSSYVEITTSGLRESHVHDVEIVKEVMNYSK

[2] = target: Inosine-5'-monophosphate dehydrogenase 2 (Homo sapiens, UniProt P12268); assay: Inhibition of human IMPDH2 expressed in Escherichia coli assessed as apparent inhibition constant using NAD as substrate by fluorescence assay; conditions: read-out: Ki(app)

SMILES | Ki [1] [nM] | Ki [2] [nM]
COc1c(C)c2c(c(O)c1C/C=C(\C)CCC(=O)N(C)c1ccc(Cl)cc1)C(=O)OC2 | 870 | –
COc1c(C)c2c(c(O)c1C/C=C(\C)CCC(=O)Nc1ccc(C#N)cc1)C(=O)OC2 | 110 | 350
COc1c(C)c2c(c(O)c1C/C=C(\C)CCC(=O)Nc1ccc(C(F)(F)F)cc1)C(=O)OC2 | – | 400
COc1c(C)c2c(c(O)c1C/C=C(\C)CCC(=O)Nc1ccc(F)cc1)C(=O)OC2 | – | 270
COc1c(C)c2c(c(OC)c1C/C=C(\C)CCC(=O)Nc1ccc(Cl)c(C(F)(F)F)c1)C(=O)OC2 | 1700 | –

More lines, in order of falling Ki [1], values ahead:

Ki [1] [nM] | Ki [2] [nM] | SMILES
60 | – | COc1c(C)c2c(c(O)c1CCC(C)CCC(=O)Nc1ccc(Cl)c(C(F)(F)F)c1)C(=O)OC2 (stereo not given)
46 | 350 | COc1cc(NC(=O)CC/C(C)=C/Cc2c(O)c3c(c(C)c2OC)COC3=O)ccc1Cl
42 | 130 | COc1c(C)c2c(c(O)c1C/C=C(\C)CCC(=O)Nc1ccc(Cl)cc1)C(=O)OC2
41 | 340 | COc1c(C)c2c(c(O)c1C/C=C(\C)CCC(=O)Nc1ccc(Cl)c(Cl)c1)C(=O)OC2
16 | 230 | COc1c(C)c2c(c(O)c1C/C=C(\C)CCC(=O)Nc1ccc(Cl)c(C(F)(F)F)c1)C(=O)OC2
